Data as given in US12018011B2, “Macrocyclic compounds and compositions, and methods of preparing and using the same” (Kura Oncology, Inc., priority 2021, dated 2024).
Where two headings read alike, the source gives them in different places. Blank lines part the entries; values can stand above or below the compound they belong to.

How the values were obtained:
[1] = ether bond, 13-membered ring, SOCl2, then Cs2CO3, 2 steps
[2] = ether bond, DMF
[3] = molecular target: T1, Recombinant human farnesyl transferase (FTase) (Homo sapiens, UniProt P49356); assay: FTase fluorescence assay (farnesylation of dansyl-GCVLS peptide); assay type: biochemical; conditions: recombinant human FTase 2.5 nM, Dansyl-GCVLS 85 nM, FPP 30 nM, 30° C., 50 minutes
T1 construct: purchased Crelux (Martinsried, Germany)

[4] = ether bond, 13-membered ring, DMF

Compound: 4^4-bromo-2^2-chloro-3-(1-methyl-1H-imidazol-5-yl)-6-oxa-2(4,6)-quinolina-1,4(1,3)-dibenzenacyclohexaphan-3-ol
- ring closure, crude yield ([1]; DMF, 116.2 mM, 70.0 °C): 84%

Compound: 4^4-chloro-2^2-methoxy-3-(1-methyl-1H-imidazol-5-yl)-6-oxa-2(4,6)-quinolina-1,4(1,3)-dibenzenacyclohexaphan-3-ol
- ring closure, crude yield ([1]; DMF/THF 1:3, 9.96 mM, 105.0 °C): 90.7%

- IC50 [3]: > 100 nM
Compound: COc1cc2c3cc(ccc3n1)C(O)(c1nncn1C)c1ccc(Cl)c(c1)COc1cccc-2c1 (centres unmarked) [Compound 49, 4^4-chloro-2^2-methoxy-3-(4-methyl-4H-1,2,4-triazol-3-yl)-6-oxa-2(4,6)-quinolina-1,4(1,3)-dibenzenacyclohexaphan-3-ol]
- ring closure, yield of all isomers ([2]; from COc1cc(-c2cccc(O)c2)c2cc(C(O)(c3ccc(Cl)c(CCl)c3)c3nncn3C)ccc2n1, K2CO3, 29.8 mM, 55.0 °C, 12.0 h): 19%

- IC50 [3]: > 100 nM
Compound: COc1cc2c3cc(ccc3n1)C(O)(c1cncn1C)c1cnc(Cl)c(c1)COc1cccc-2c1 (centres unmarked) [Compound 59, 4^6-chloro-2^2-methoxy-3-(1-methyl-1H-imidazol-5-yl)-6-oxa-2(4,6)-quinolina-4(3,5)-pyridina-1(1,3)-benzenacyclohexaphan-3-ol]
- ring closure, yield of all isomers ([2]; from COc1cc(-c2cccc(O)c2)c2cc(C(O)(c3cnc(Cl)c(CO)c3)c3cncn3C)ccc2n1, SOCl2 then Cs2CO3, 64.5 mM, 70.0 °C, 1.0 h, 2 steps): 95.6%

Compound: 4^4-bromo-3-(1-methyl-1H-imidazol-5-yl)-6-oxa-2(1,7)-isoquinolina-1,4(1,3)-dibenzenacyclohexaphan-3-ol
- ring closure, isolated yield ([4]; Cs2CO3, 77.0 mM, 50.0 °C): 60.6%

Compound: 4^4-chloro-2^2-methoxy-3-(4-methyl-4H-1,2,4-triazol-3-yl)-6-oxa-2(4,6)-quinolina-1,4(1,3)-dibenzenacyclohexaphan-3-ol
- ring closure, isolated yield ([4]; K2CO3, 29.8 mM, 55.0 °C): 69.1%

Compound: 4^4-bromo-2^2-methoxy-3-(1-methyl-1H-imidazol-5-yl)-6-oxa-2(4,6)-quinolina-1,4(1,3)-dibenzenacyclohexaphan-3-ol
- ring closure, crude yield ([1]; DMF, 122.7 mM, 70.0 °C): 84.8%

Compound: 4^6-chloro-2^2-methoxy-3-(1-methyl-1H-imidazol-5-yl)-6-oxa-2(4,6)-quinolina-4(3,5)-pyridina-1(1,3)-benzenacyclohexaphan-3-ol
- ring closure, crude yield ([1]; DMF, 64.5 mM, 70.0 °C): 95.6%

- IC50 [3]: > 100 nM
Compound: Cn1cncc1C1(O)c2ccc(Br)c(c2)COc2cccc(c2)-c2cc(Cl)nc3ccc1cc23 (centres unmarked) [Compound 71, 4^4-bromo-2^2-chloro-3-(1-methyl-1H-imidazol-5-yl)-6-oxa-2(4,6)-quinolina-1,4(1,3)-dibenzenacyclohexaphan-3-ol]
- ring closure, yield of all isomers ([2]; from Cn1cncc1C(O)(c1ccc(Br)c(CO)c1)c1ccc2nc(Cl)cc(-c3cccc(O)c3)c2c1, Cs2CO3, 116.2 mM, 70.0 °C, 2.0 h, 2 steps): 84%

- IC50 [3]: 10 to 100 nM
Compound: COc1cc2c3cc(ccc3n1)C(O)(c1cncn1C)c1ccc(Br)c(c1)COc1cccc-2c1 (centres unmarked) [Compound 52, 4^4-bromo-2^2-methoxy-3-(1-methyl-1H-imidazol-5-yl)-6-oxa-2(4,6)-quinolina-1,4(1,3)-dibenzenacyclohexaphan-3-ol]
- ring closure, yield of all isomers ([2]; from COc1cc(-c2cccc(O)c2)c2cc(C(O)(c3ccc(Br)c(CO)c3)c3cncn3C)ccc2n1, Cs2CO3, 122.7 mM, 70.0 °C, 0.5 h, 2 steps): 84.8%
